In assay [1] the test system is purified β-glucosidase from Candida peltata Y-21603. The assay can be described thus: Inhibition by glucose, cellobiose and other sugars; inhibitors and activators (pNPβG hydrolysis assay). The format is biochemical. As to the method: FIG. 4. […] Reaction time was 15 min at pH 5.0 and 50° C. Enzyme used, 39 mU/ml. pNPβG used: .smallcircle., 0.4 mM; .circle-solid., 0.8 mM; .tangle-solidup., 1.2 mM; Δ, 1.6 mM; .quadrature., 2.0 mM; .box-solid., 2.4 mM.
After incubation at 50° C. for 30 min, the reaction was stopped by adding ice-cold 0.5M Na2 CO3 (1 ml) and the color developed as a result of p-nitrophenol (pNP) liberation was measured at 405 nm.
Inhibition by glucose cellobiose and other sugars. The study of inhibition by glucose was performed with pNPβG as substrate.
Inhibitors and activators.

For assay [2] the test system is unchanged. Kind of assay: Substrate specificity and kinetic analysis (Lineweaver-Burk). The format is biochemical. As to conditions: for activity on substrate (relative rate of hydrolysis): disaccharides; for Vmax / Km: pH 5.0 and 50° C.; for Km: read-out: apparent Km; for relative rate of hydrolysis, of that of pNPβG: aryl-glycosides. The text has this: Substrate specificity and kinetic analysis. Relative rates of hydrolysis of various substrates by the purified β-glucosidase were studied. The enzyme could hydrolyze pNPβG and cellobiose effectively. Salicin was hydrolyzed at 34% of that of cellobiose. The purified enzyme had very little (<5%) or no activity on lactose, maltose, sucrose and trehalose. It also had no or very little activity on p-nitrophenyl-α-D-glucoside, p-nitrophenyl-β-D-xyloside, p-nitrophenyl-β-D-cellobioside, p-nitrophenyl-α-L-arabinofuranoside, and p-nitrophenyl-β-D-glucuronide (<5%). p-Nitrophenyl-β-D-galactoside was hydrolyzed at 6% of that of pNPβG. The reaction kinetics of the purified enzyme were determined from Lineweaver-Burk plots using pNPβG and cellooligosaccharides (cellobiose to cellohexaose) as substrates under optimal conditions (pH 5.0 and 50° C.).

Assay [3] has as its system Candida peltata Y-21603. Kind of assay: Growth and β-glucosidase production on various carbon sources. The format is cell-based. The conditions noted are these: 28° C., 4 days. The protocol:
Yeast strain, medium and culture conditions. The yeast strain (C. peltata NRRL Y-21603, also available as NRRL Y-6888) used in this study was obtained from the ARS culture collection, NCAUR, Peoria, Ill. The medium ([…] et al., 1982, Biotechnol. […] Solution A was a trace mineral solution having the following ingredients (per L): 1.1 g CaO, 0.4 g ZnO, 5.4 g FeCl3 ·6H2 O, 0.25 g CuSO4.5H2 O, 0.24 g CoCl2.6H2 O, 0.06 g H3 BO3 and 13 ml concentrated HCl. Solution B (per L) was composed of 10.1 g MgO and 45 ml concentrated HCl. Solution C (per L) contained 64 g urea, 12 g KH2 PO4, and 1.8 g Na2 HPO4. Substrates were sterilized separately. […] After 4 days, the cells were removed from the culture broth by centrifugation (18,000×g, 20 min). The resulting supernatant solution was used as the crude enzyme preparation. […] Analytical methods. […] Glucose was a good growth substrate for production of β-glucosidase.

For assay [4], the system named is purified β-glucosidase from Candida peltata Y-21603. The assay can be described thus: Inhibition by glucose, cellobiose and other sugars; inhibitors and activators (pNPβG hydrolysis assay). The format is biochemical. The source holds these as a separate data set.

Entries after “also recorded” stand apart in the source; their conditions may differ.

The record followed here is patent US5747320A (The United States of America, as represented by the …, priority 1996, dated 1998).

As to `[Mg+2]` [Mg^2+], the “dependence of enzyme activity on metal ion” value (“dependence of enzyme activity” for short) in assay [1] (5 mM) is recorded as “not dependent”.

Take arabinose: in assay [1] (sugar at 56 mM), the “inhibition of β-glucosidase activity” value was “did not inhibit”.

On to `O[C@H](CS)[C@H](O)CS` (racemic) [DTT, dithiothreitol], for which the “effect on enzyme activity” value in assay [1] (10 mM) is recorded as “not affected”.

Regarding `O=C(CO)[C@@H](O)[C@H](O)[C@H](O)CO` [fructose], the “inhibition of β-glucosidase activity” value in assay [1] (sugar at 56 mM) is listed as “did not inhibit”.

Turning to `CCO` [ethanol], the “increase of pNPβG hydrolysis (initial activity)” value in assay [1] (0.75% (v/v) ethanol, pH 5.0, 50° C., 30 min reaction) was determined as 11%.

Turning to `OC[C@H]1O[C@@](CO)(O[C@H]2O[C@H](CO)[C@@H](O)[C@H](O)[C@H]2O)[C@@H](O)[C@@H]1O` [Sucrose, sucrose], the “activity on substrate (relative rate of hydrolysis)” value in assay [2] (purified enzyme) is listed as less than 5%. The “inhibition of β-glucosidase activity” value in assay [1] (sugar at 29 mM) was “did not inhibit”. The “Growth (A660)” value in assay [3] (carbon source 1% w/v) is reported as 9.0.

In the case of `OCc1ccccc1O[C@@H]1O[C@H](CO)[C@@H](O)[C@H](O)[C@H]1O` [Salicin], the “relative rate of hydrolysis, of that of cellobiose” value in assay [2] (purified enzyme) is given as 34%.

On to `OC[C@H]1O[C@@H](O[C@H]2[C@H](O)[C@@H](O)C(O)O[C@@H]2CO)[C@H](O)[C@@H](O)[C@H]1O` (stereo partly drawn) [Lactose, lactose], for which, in assay [2] (purified enzyme), the “activity on substrate (relative rate of hydrolysis)” value is given as less than 5%. For the same molecule, in assay [1] (sugar at 29 mM), the “inhibition of β-glucosidase activity” value is on record as “did not inhibit”. In addition, the “Growth (A660)” value in assay [3] (carbon source 1% w/v) came out at 2.5.

With `OC[C@H]1O[C@@H](O[C@H]2[C@H](O)[C@@H](O)[C@H](O[C@H]3[C@H](O)[C@@H](O)[C@H](O[C@H]4[C@H](O)[C@@H](O)[C@H](O[C@H]5[C@H](O)[C@@H](O)[C@H](O[C@H]6[C@H](O)[C@@H](O)C(O)O[C@@H]6CO)O[C@@H]5CO)O[C@@H]4CO)O[C@@H]3CO)O[C@@H]2CO)[C@H](O)[C@@H](O)[C@@H]1O` (stereo partly drawn) [cellohexaose], in assay [2], the Vmax amounted to 5 μmol.min^-1.mg^-1 protein and the Km is 18 mM.

As for `OC[C@H]1O[C@@H](O[C@H]2[C@H](O)[C@@H](O)C(O)O[C@@H]2CO)[C@H](O)[C@@H](O)[C@@H]1O` (stereo partly drawn) [Cellobiose, cellobiose], in assay [2], the Vmax came out at 75 μmol.min^-1.mg^-1 protein and the Km was 66 mM. Besides, the substrate inhibition result in assay [4] (15% cellobiose) is “no inhibition; also recorded: not observed at all; also recorded: not inhibited at all”. For the same molecule, the “Growth (A660)” value in assay [3] (carbon source 1% w/v) was 8.7.

Take `OC[C@H]1O[C@@H](O[C@H]2[C@H](O)[C@@H](O)[C@H](O[C@H]3[C@H](O)[C@@H](O)[C@H](O[C@H]4[C@H](O)[C@@H](O)C(O)O[C@@H]4CO)O[C@@H]3CO)O[C@@H]2CO)[C@H](O)[C@@H](O)[C@@H]1O` (stereo partly drawn) [cellotetraose]: in assay [2], the Vmax came out at 16 μmol.min^-1.mg^-1 protein and the Km amounted to 35 mM.

With `OC[C@H]1O[C@H](O[C@H]2[C@H](O)[C@@H](O)[C@H](O)O[C@@H]2CO)[C@H](O)[C@@H](O)[C@@H]1O` [Maltose, maltose], the “activity on substrate (relative rate of hydrolysis)” value in assay [2] (purified enzyme) was less than 5%. Besides, the “Growth (A660)” value in assay [3] (carbon source 1% w/v) is given as 9.3.

Take `OC[C@H]1OC(O)[C@H](O)[C@@H](O)[C@H]1O` (stereo partly drawn) [Galactose]: the “inhibition of β-glucosidase activity” value in assay [1] (sugar at 56 mM) is recorded as “did not inhibit”.

For `OC[C@H]1OC(O)[C@@H](O)[C@@H](O)[C@@H]1O` (stereo partly drawn) [mannose], the “inhibition of β-glucosidase activity” value in assay [1] (sugar at 56 mM) was “did not inhibit”.

For the molecule `OC[C@H]1O[C@@H](O[C@H]2[C@H](O)[C@@H](O)[C@H](O[C@H]3[C@H](O)[C@@H](O)C(O)O[C@@H]3CO)O[C@@H]2CO)[C@H](O)[C@@H](O)[C@@H]1O` (stereo partly drawn) [cellotriose], in assay [2], the Vmax is given as 32 μmol.min^-1.mg^-1 protein and the Km is 39 mM.

Regarding `O=[N+]([O-])c1ccc(O[C@@H]2O[C@H](CO)[C@@H](O)[C@H](O)[C@H]2O)cc1` [pNPβG, p-nitrophenyl β-D-glucoside], in assay [2], the Vmax amounted to 221 μmol.min^-1.mg^-1 protein and the Km came to 2.3 mM. Moreover, the substrate inhibition entry in assay [4] (40 mM pNPβG) is recorded as “not observed at all; also recorded: not inhibited at all”.

With `[Ca+2]` [Ca^2+], the “dependence of enzyme activity” value in assay [1] (5 mM) is listed as “not dependent”.

As for `O=C(O)[C@H]1O[C@@H](Oc2ccc([N+](=O)[O-])cc2)[C@H](O)[C@@H](O)[C@@H]1O` [p-nitrophenyl-β-D-glucuronide], the “relative rate of hydrolysis, of that of pNPβG” value (from here on “relative rate … of pNPβG”) in assay [2] (purified enzyme) is less than 5%.

Take `O=C[C@H](O)[C@@H](O)[C@@H](O)CO` [L-Arabinose]: the “Growth (A660)” value in assay [3] (carbon source 1% w/v) is recorded as 9.4.

As for `O=C(O)c1cc[c]([Hg][Cl])cc1` [pCMB, p-chloromercuribenzoic acid], the “effect on enzyme activity” value in assay [1] (0.2 mM) is on record as “not affected; also recorded: unaffected”.

As for `O=[N+]([O-])c1ccc(O[C@@H]2O[C@H](CO)[C@@H](O[C@@H]3O[C@H](CO)[C@@H](O)[C@H](O)[C@H]3O)[C@H](O)[C@H]2O)cc1` [p-nitrophenyl-β-D-cellobioside], the “relative rate … of pNPβG” value in assay [2] (purified enzyme) is on record as less than 5%.

`[Co+2]` [Co^2+]: the “dependence of enzyme activity” value in assay [1] (0.5 mM) was “not dependent”.

For `OC[C@H]1O[C@H](O[C@H]2O[C@H](CO)[C@@H](O)[C@H](O)[C@H]2O)[C@H](O)[C@@H](O)[C@@H]1O` [trehalose], the “activity on substrate (relative rate of hydrolysis)” value in assay [2] (purified enzyme) is less than 5%.

`O=[N+]([O-])c1ccc(O[C@H]2O[C@H](CO)[C@@H](O)[C@H](O)[C@H]2O)cc1` [p-nitrophenyl-α-D-glucoside]: the “relative rate … of pNPβG” value in assay [2] (purified enzyme) was less than 5%.

In the case of `O=[N+]([O-])c1ccc(O[C@@H]2O[C@H](CO)[C@H](O)[C@H](O)[C@H]2O)cc1` [p-Nitrophenyl-β-D-galactoside], in assay [2] (purified enzyme), the “relative rate … of pNPβG” value came out at 6%.

`O=[N+]([O-])c1ccc(O[C@@H]2O[C@@H](CO)[C@H](O)[C@H]2O)cc1` [p-nitrophenyl-α-L-arabinofuranoside]: the “relative rate … of pNPβG” value in assay [2] (purified enzyme) is listed as less than 5%.

As for `OC1OC[C@@H](O)[C@H](O)[C@H]1O` (stereo partly drawn) [Xylose, xylose], the “inhibition of β-glucosidase activity” value in assay [1] (sugar at 56 mM) was “did not inhibit”. In assay [3] (carbon source 1% w/v), the “Growth (A660)” value is 11.3.

For `[Mn+2]` [Mn^2+], the “dependence of enzyme activity” value in assay [1] (5 mM) was “not dependent”.

With `OC[C@H]1O[C@@H](O[C@H]2[C@H](O)[C@@H](O)[C@H](O[C@H]3[C@H](O)[C@@H](O)[C@H](O[C@H]4[C@H](O)[C@@H](O)[C@H](O[C@H]5[C@H](O)[C@@H](O)C(O)O[C@@H]5CO)O[C@@H]4CO)O[C@@H]3CO)O[C@@H]2CO)[C@H](O)[C@@H](O)[C@@H]1O` (stereo partly drawn) [cellopentaose], in assay [2], the Vmax came out at 8 μmol.min^-1.mg^-1 protein and the Km stood at 21 mM.

For `OC[C@H]1OC(O)[C@H](O)[C@@H](O)[C@@H]1O` (stereo partly drawn) [Glucose, glucose], the “Growth (A660)” value in assay [3] (carbon source 1% w/v) was found to be 10.7; in assay [3] (carbon source 2% w/v), 13.7; in assay [3] (carbon source 4% w/v) it was 13.3; in assay [3] (carbon source 8% w/v), 9.7; in assay [3] (carbon source 12% w/v) it was 7.9; in assay [3] (carbon source 20% w/v), 7.3.

On to `O=[N+]([O-])c1ccc(O[C@@H]2OC[C@@H](O)[C@H](O)[C@H]2O)cc1` [p-nitrophenyl-β-D-xyloside], for which the “relative rate … of pNPβG” value in assay [2] (purified enzyme) is less than 5%.
